Reference: patent publication US9387215B2, “Animal feed including cationic cholesterol additive and related methods” (priority 2013, dated 2016)

Columns and labels:
Format in all cases: in vivo
[1] = Confined animal feed operation study of chickens, additive in drinking water; details: for Harvest weight / Weight gain: day one through day 35, CSA-44 5 ppm in drinking water, control tetracycline in feed; for Death loss: in vivo
Procedure: A study of 50,000 birds performed in 2 groups of 25,000 birds was performed on a confined animal feed operation. The following cationic cholesterol additive (CSA-44) was added to animal drinking water:
The additive was prepared in drinking water at a concentration of 5 ppm. The dry feed administered to the chickens contained no antibiotic.
A control group of birds was delivered tetracycline in animal feed according to conventional practices.
The cationic cholesterol additive was given from day one through day 35.

[2] = tested on: Lactobacillus bacteria (LAB); test: Lactobacillus bacteria (LAB) concentration in ileum, cecum and colon of mice after oral CSA-44; details: 10 mg/kg oral gastric lavage, 12 and 24 hours post Tx
Procedure: To evaluate the effectiveness of cationic cholesterol compounds on GI microbiota, the following compound (CSA-44) was administered oraly by gastric lavage to mice at 10 mg/kg:
To determine the health improvements caused by the cationic cholesterol compound, the concentration (cfu/mL) of Lactobacillus bacteria (LAB) (beneficial flora) in the ileum, cecum, and colon was determined at 12 and 24 hours. The LAB concentration was compared to control mice.
As illustrated in the graphs of FIGS. 1 and 2, the cationic cholesterol compound appears to have a significant “sparing” effect on beneficial Lactobacillus bacteria (LAB) flora (log values on y-axis) in the ileum, cecum and colon (on x-axis) when compared to control mice at 12 and 24 hours after being given CSA-44 (“post Tx”), resulting in almost a 2 log increase in LAB concentration in all 3 segments of the intestine when compared to control mice. This increase in LAB concentration flora is a surprising and unexpected result.

[3] = tested on: C. difficile; test: LD50 C. difficile challenge model, survival of mice; details: administered 24 hours after C. difficile challenge; Day 0, Day 3, Day 10; versus control mice; FIG. 5
Procedure: The mice of Example 2 were also evaluated for decreased morbidity in an LD50 C. difficile challenge model. The cationic cholesterol compound was administered 24 hours after C. difficile challenge (“Tx 24 Hr.”). FIG. 4 illustrates the steps used in performing the study.

[4] = tested on: C. difficile ATCC 9689; test: Weight gain of mice after C. difficile challenge; details: oral 10 mg/kg once, 24 and 48 hours after 1×10^5 cfu or 72 hours after 1×10^6 cfu challenge; FIG. 3
Procedure: In another study with the mice of Example 2, a cationic cholesterol additive was administered to determine changes in weight gain. The compound was administered orally @10/mg/kg once, 24 and 48 hours after C. difficile ATCC 9689 challenge at 1×10^5 cfu (or CFU) or 72 hours after challenge with 1×10^6 cfu (or CFU) (Day 0). The results are illustrated in the graph of FIG. 3.

In the case of `CCCCCCCCOC(=O)CC[C@@H](C)[C@H]1CC[C@H]2[C@@H]3[C@H](OC(=O)CCN)C[C@@H]4C[C@H](OC(=O)CCN)CC[C@]4(C)[C@H]3C[C@H](OC(=O)CCN)[C@]12C` [CSA-44], the “Feed conversion efficiency improved” value ([1]; chickens, 5 ppm in drinking water, versus tetracycline control) is reported as 8%, the Harvest weight ([1]; chickens) is reported as 4.22 lbs and the Weight gain ([1]; chickens) is reported as 0.120 lbs per day. For the same compound, the Death loss [1] was 535 birds, the “Increase in LAB concentration compared to control mice” value [2] was ~2 log and the Survival rate [3] was “improved survival rate”. The “Weight gain after challenge with C. difficile” value [4] was “trend for the treated mice to have greater weight gain”.
With `CN(C)[C@@H]1C(O)=C(C(N)=O)C(=O)[C@@]2(O)C(O)=C3C(=O)c4c(O)cccc4[C@@](C)(O)[C@H]3C[C@@H]12` [tetracycline, reference compound] the Harvest weight ([1]; chickens) was 3.85 lbs, the Weight gain ([1]; chickens) was 0.112 lbs per day and the Death loss [1] was 1400-1500 birds.
